Results reported in patent US20230085307A1, “PYRIDAZINONE COMPOUND AND HERBICIDE” (NISSAN CHEMICAL CORPORATION, priority 2019, published 2023).

Assays:
velvetleaf = experiment: Test Example 4: herbicidal effect by soil treatment (Table 19, symbol M); type: in vivo, velvetleaf (Abutilon theophrasti); conditions: amount of applied herbicide 320 g/ha
Outline: (§1)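 Seeds were sown in sterilized diluvial soil and covered with about 1.5 cm of soil. An emulsion formulation diluted with water to a predetermined herbicide amount was sprayed evenly onto the soil surface. Plants grew in a greenhouse at 25° C. to 30° C., and the effect was scored three weeks after application using criteria from an earlier test.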

green foxtail = experiment: Test Example 4: herbicidal effect by soil treatment (Table 19, symbol G); type: in vivo, green foxtail (Setaria viridis); conditions: amount of applied herbicide 320 g/ha
Outline: as §1

lambsquarters = experiment: Test Example 4: herbicidal effect by soil treatment (Table 19, symbol O); type: in vivo, lambsquarters (Chenopodium album); conditions: amount of applied herbicide 320 g/ha
Outline: as §1

directly sowed rice = experiment: Test Example 3: effect on crop by foliage application, Wagner pot (Table 18, symbol b); type: in vivo; conditions: amount of applied herbicide 320 g/ha
Method: [Test Example 3] Herbicidal Effect Test by Foliage Application After alluvial soil was placed into 1/10000 are of Wagner pot, water was poured and mixed to form a submerged condition having a water depth of 0.1 cm to 0.5 cm. Seeds of barnyard grass, Chinese sprangletop, rice flat sedge, and rice were sowed and the pot was placed in a greenhouse at 25° C. to 30° C. for growth of the plants. After 14-day growth of the plants, the emulsion agent of the compound of the present invention prepared according to Formulation Example 2 was diluted with water so as to achieve a predetermined herbicide amount, and the diluted emulsion agent was uniformly applied to a foliage part with a small-sized spray. Three weeks after the herbicide application, the effect of the herbicide on each plant was evaluated according to the criteria of Test Example 1.

rapeseed = experiment: Test Example 4: effect on crop by soil treatment (Table 19, symbol g); type: in vivo; conditions: amount of applied herbicide 320 g/ha
From the text: (§2) [Test Example 4] Herbicidal Effect Test by Soil Treatment
(§3) Sterilized diluvial soil was placed in a plastic box having a length of 21 cm, a width of 13 cm, and a depth of 7 cm. The seeds of each of southern crabgrass, green foxtail, barnyard grass, wild oat, blackgrass, Italian ryegrass, windgrass, velvetleaf, redroot pigweed, lambsquarters, chickweed, false cleavers, persian speedwell, corn, soybean, rice, wheat, beet, and rapeseed were sowed in a spot-like manner and covered with the soil having a thickness of about 1.5 cm. Subsequently, the emulsion agent of the compound of the present invention prepared according to Formulation Example 2 was diluted with water so as to achieve a predetermined herbicide amount, and the diluted emulsion agent was uniformly applied to the surface of the soil with a small-sized spray. The plastic box was placed in a greenhouse at 25° C. to 30° C. for growth of the plants. Three weeks after the herbicide application, the effect of the herbicide on each plant was evaluated according to the criteria of Test Example 1.

Chinese sprangletop = experiment: Test Example 3: herbicidal effect by foliage application, Wagner pot (Table 18, symbol D); type: in vivo, chinese sprangletop (Leptochloa chinensis); conditions: amount of applied herbicide 320 g/ha
Outline: (§4)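 Plants were sown in alluvial soil held under 0.1–0.5 cm standing water and grown 14 days in a greenhouse at 25–30 °C. An emulsifiable formulation, water-diluted to the set dose, was then sprayed onto the foliage, and effects were scored three weeks later using previously defined criteria.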

Italian ryegrass = experiment: Test Example 4: herbicidal effect by soil treatment (Table 19, symbol K); type: in vivo, Italian ryegrass (Lolium multiflorum); conditions: amount of applied herbicide 320 g/ha
Outline: as §1

wild oat = experiment: Test Example 4: herbicidal effect by soil treatment (Table 19, symbol I); type: in vivo, wild oat (Avena fatua); conditions: amount of applied herbicide 320 g/ha
Outline: as §1

windgrass = experiment: Test Example 4: herbicidal effect by soil treatment (Table 19, symbol L); type: in vivo, windgrass (Apera spica-venti); conditions: amount of applied herbicide 320 g/ha
Outline: as §1

redroot pigweed = experiment: Test Example 4: herbicidal effect by soil treatment (Table 19, symbol N); type: in vivo, redroot pigweed (Amaranthus retroflexus); conditions: amount of applied herbicide 320 g/ha
Outline: as §1

southern crabgrass = experiment: Test Example 4: herbicidal effect by soil treatment (Table 19, symbol F); type: in vivo, southern crabgrass (Digitaria ciliaris); conditions: amount of applied herbicide 320 g/ha
Outline: as §1

wheat = experiment: Test Example 4: effect on crop by soil treatment (Table 19, symbol e); type: in vivo; conditions: amount of applied herbicide 320 g/ha
From the text: as §2, §3

soybean = experiment: Test Example 4: effect on crop by soil treatment (Table 19, symbol d); type: in vivo; conditions: amount of applied herbicide 320 g/ha
From the text: as §2, §3

beet = experiment: Test Example 4: effect on crop by soil treatment (Table 19, symbol f); type: in vivo; conditions: amount of applied herbicide 320 g/ha
From the text: as §2, §3

rice flat sedge = experiment: Test Example 3: herbicidal effect by foliage application, Wagner pot (Table 18, symbol E); type: in vivo, rice flat sedge (Cyperus iria); conditions: amount of applied herbicide 320 g/ha
Outline: as §4

barnyard grass [1] = experiment: Test Example 4: herbicidal effect by soil treatment (Table 19, symbol H); type: in vivo, barnyard grass (Echinochloa crus-galli); conditions: amount of applied herbicide 320 g/ha
Outline: as §1

blackgrass = experiment: Test Example 4: herbicidal effect by soil treatment (Table 19, symbol J); type: in vivo, blackgrass (Alopecurus myosuroides); conditions: amount of applied herbicide 320 g/ha
Outline: as §1

corn = experiment: Test Example 4: effect on crop by soil treatment (Table 19, symbol c); type: in vivo; conditions: amount of applied herbicide 320 g/ha
From the text: as §2, §3

barnyard grass [2] = experiment: Test Example 3: herbicidal effect by foliage application, Wagner pot (Table 18, symbol H); type: in vivo, barnyard grass (Echinochloa crus-galli); conditions: amount of applied herbicide 320 g/ha
Outline: as §4

| SMILES | herbicidal effect, M: velvetleaf (velvetleaf) | herbicidal effect, G: green foxtail (green foxtail) | herbicidal effect, O: lambsquarters (lambsquarters) | effect on crop b: directly sowed rice (directly sowed rice) | effect on crop, g: rapeseed (rapeseed) | herbicidal effect on D: Chinese sprangletop (Chinese sprangletop) | herbicidal effect, K: Italian ryegrass (Italian ryegrass) | herbicidal effect, I: wild oat (wild oat) | melting point [°C] | herbicidal effect, L: windgrass (windgrass) | herbicidal effect, N: redroot pigweed (redroot pigweed) | herbicidal effect, F: southern crabgrass (southern crabgrass) | effect on crop, e: wheat (wheat) | effect on crop, d: soybean (soybean) | effect on crop, f: beet (beet) | herbicidal effect on E: rice flat sedge (rice flat sedge) | herbicidal effect, H: barnyard grass (barnyard grass [1]) | herbicidal effect, J: blackgrass (blackgrass) | effect on crop, c: corn (corn) | herbicidal effect on H: barnyard grass (barnyard grass [2]) |
| --- | --- | --- | --- | --- | --- | --- | --- | --- | --- | --- | --- | --- | --- | --- | --- | --- | --- | --- | --- | --- |
| COc1ccccc1-c1sc2ccc(SC(F)(F)F)cc2c1-c1c(O)c(C)nn(C)c1=O [Compound No. 2-378, 5-hydroxy-4-(2-(2-methoxyphenyl)-5-((trifluoromethyl)thio)benzo[b]thiophen-3-yl)-2,6-di methylpyridazin-3(2H)-one] | 0 (Herbicidal rate of 5% or less (almost no effect)) | 0 (Herbicidal rate of 5% or less (almost no effect)) | 2 (Herbicidal rate of 20% or more and less than 40%) | 0 (Herbicidal rate of 5% or less (almost no effect)) | 0 (Herbicidal rate of 5% or less (almost no effect)) | 5 (Herbicidal rate of 90% or more (almost completely withered)) | 0 (Herbicidal rate of 5% or less (almost no effect)) | 0 (Herbicidal rate of 5% or less (almost no effect)) | 183 to 186 | 0 (Herbicidal rate of 5% or less (almost no effect)) | 4 (Herbicidal rate of 70% or more and less than 90%) | 0 (Herbicidal rate of 5% or less (almost no effect)) | 0 (Herbicidal rate of 5% or less (almost no effect)) | 0 (Herbicidal rate of 5% or less (almost no effect)) | 0 (Herbicidal rate of 5% or less (almost no effect)) | 3 (Herbicidal rate of 40% or more and less than 70%) | 0 (Herbicidal rate of 5% or less (almost no effect)) | 0 (Herbicidal rate of 5% or less (almost no effect)) | 0 (Herbicidal rate of 5% or less (almost no effect)) | 5 (Herbicidal rate of 90% or more (almost completely withered)) |
| COc1ccccc1-c1sc2ccc(Cl)cc2c1-c1c(OC)c(C)nn(C)c1=O [Compound No. 2-102, 4-(5-chloro-2-(2-methoxyphenyl)benzo[b]thiophen-3-yl)-5-methoxy-2,6-dimethylpyridazin-3(2H)-one] | – | – | – | – | – | – | – | – | 174 to 175 | – | – | – | – | – | – | – | – | – | – | – |
| COc1ccccc1-c1sc2ccc(SC(F)(F)F)cc2c1-c1c(OC)c(C)nn(C)c1=O [Compound No. 2-379, 5-methoxy-4-(2-(2-methoxyphenyl)-5-((trifluoromethyl)thio)benzo[b]thiophen-3-yl)-2,6-di methylpyridazin-3(2H)-one] | – | – | – | – | – | – | – | – | 152 to 155 | – | – | – | – | – | – | – | – | – | – | – |
